In general, Ki refers to the dissociation constant of the complex between target and ligand, obtained from inhibition or displacement. Higher therefore signals lower affinity. As a reminder, the IC50 is the point on the concentration scale where inhibition reaches its midpoint.

We go through 16 molecules from article PMC12578816 (Scientific Reports, 2025).

Assay [1] has as its system α-glucosidase (from Saccharomyces cerevisiae). As to the kind of experiment: α-glucosidase inhibitory assay. Type of assay: biochemical.
Assay [2] shares this test system. The assay is described as follows: α-glucosidase enzyme kinetic analysis. The following applies: for inhibition mechanism: Lineweaver–Burk plots; for Ki: secondary plot of slopes.
The next assay has as its target α-glucosidase. The settings on record: cited from earlier work.

≈ marks a conversion by molar mass, not a printed value. Entries after “also recorded” stand apart in the source; their conditions may differ. Where two headings read alike, the source gives them in different places.

`O=c1ccn([C@@H]2O[C@H](CO)[C@@H](O)[C@H]2O)c(=O)[nH]1` [Uridine]: the “α-glucosidase inhibitory activity of isolated compounds (in words)” value (from here on “α-glucosidase inhibitory activity”) in assay [1] is on record as “exhibited α-glucosidase inhibitory activity”. Besides, in assay [2], the inhibition mechanism entry is listed as “competitive inhibitor; also recorded: competitive inhibition” and the Ki stood at 153 µM.

Turning to `OC[C@H]1O[C@H](O[C@H]2[C@H](O)[C@@H](O)[C@@H](O[C@H]3[C@H](O)[C@@H](O)C(O)O[C@@H]3CO)O[C@@H]2CO)[C@H](O)[C@@H](O)[C@@H]1N[C@@H]1[C@H](O)[C@@H](O)[C@H](O)[C@]2(CO)O[C@H]12` (stereo partly drawn) [CKD-711], the IC50 at α-glucosidase is reported as 2.5 µg/mL (≈ 3.69 µM).

For `O=Cc1ccc(O)cc1` [4-hydroxybenzaldehyde], in assay [1], the “α-glucosidase inhibitory activity” value is “no inhibitory activity”.

Take `C[C@H]1O[C@H](O[C@H]2[C@H](O)[C@@H](O)[C@@H](O[C@H]3[C@H](O)[C@@H](O)C(O)O[C@@H]3CO)O[C@@H]2CO)[C@H](O)[C@@H](O)[C@@H]1N[C@H]1C=C(CO)[C@@H](O)[C@H](O)[C@H]1O` (stereo partly drawn) [Acarbose, reference compound]: in assay [1] (10 mg/mL, n = 3, mean ± SD), the “Inhibition (%)” value was determined as 80.2 ± 0.7%. The inhibition mechanism result is reported as “competitive inhibitor” in the assay with α-glucosidase and “competitive inhibition” in assay [2].

`CCCCOC(=O)c1ccccc1C(=O)OCCCC` [DBP, dibutyl phthalate]: the “α-glucosidase inhibitory activity” value in assay [1] is on record as “exhibited α-glucosidase inhibitory activity”. Moreover, in assay [2], the inhibition mechanism entry is reported as “mixed-type” and affinity was put at a Ki of 516 µM.

`CCCCCCCC/C=C\CCCCCCCC(=O)O` [oleic acid]: the inhibition mechanism result in the assay with α-glucosidase (fatty acids) was “mixed-type”.

Consider `CC/C=C\C/C=C\C/C=C\CCCCCCCC(=O)O` [α-linolenic acid], for which the inhibition mechanism entry with α-glucosidase (fatty acids) is “mixed-type”.

Regarding `CC/C=C\C/C=C\C/C=C\C/C=C\C/C=C\CCCC(=O)O` [eicosapentaenoic acid], the inhibition mechanism result in the assay on α-glucosidase (fatty acids) is recorded as “mixed-type”.

As for `CC(=O)c1nccc2c1[nH]c1ccccc12` [1-acetyl-β-carboline], in assay [1], the “α-glucosidase inhibitory activity” value was “no inhibitory activity”.

Take `Nc1ncnc2c1ncn2[C@@H]1O[C@H](CO)[C@@H](O)[C@H]1O` [Adenosine]: the “α-glucosidase inhibitory activity” value in assay [1] is “exhibited α-glucosidase inhibitory activity”. Moreover, in assay [2], the inhibition mechanism result is reported as “mixed-type” and the Ki amounted to 90.9 µM.

Consider `CCCCC/C=C\C/C=C\CCCCCCCC(=O)O` [linoleic acid], for which the inhibition mechanism entry with α-glucosidase (fatty acids) is on record as “mixed-type”.

On to `OC[C@H]1O[C@H](O[C@H]2[C@H](O)[C@@H](O)[C@@H](O[C@H]3[C@H](O)[C@@H](O)[C@@H](O[C@H]4[C@H](O)[C@@H](O)[C@@H](O[C@H]5[C@H](O)[C@@H](O)C(O)O[C@@H]5CO)O[C@@H]4CO)O[C@@H]3CO)O[C@@H]2CO)[C@H](O)[C@@H](O)[C@@H]1N[C@@H]1[C@H](O)[C@@H](O)[C@H](O)[C@]2(CO)O[C@H]12` (stereo partly drawn) [CKD-711a], for which the IC50 at α-glucosidase is listed as 6.5 µg/mL (≈ 6.49 µM).

Regarding `CCCCC/C=C\C/C=C\C/C=C\C/C=C\CCCC(=O)O` [arachidonic acid], the inhibition mechanism result with α-glucosidase (fatty acids) is “mixed-type”.

As for hydroxyglutaric acid [HGA], the IC50 at α-glucosidase (from Paenibacillus sp. TKU042) is recorded as 220 µg/mL.

Consider `O=c1c(-c2ccc(O)cc2)coc2cc(O)cc(O)c12` [genistein], for which, in the assay on α-glucosidase, the inhibition type result is “non-competitive inhibitor”.

As to `CCCCCCCCCCCCCCCC(=O)O` [C16:0, Palmitic acid], the inhibition mechanism result in the assay on α-glucosidase (fatty acids) was “mixed-type”.
